Laboratory results: US20230263757A1, “DISINFECTING WIPE KIT FOR CENTRAL VENOUS ACCESS DEVICES” (SterileCare Inc., priority 2022, published 2023)
Structures can show the parent of a compound that is named as a salt.

Key:
[1] = test system: Proteus mirabilis ON153; assay: FBEC index, checkerboard on biofilms; format: cell-based; details: EDTA + chlorhexidine HCl
[2] = test system: E. coli SK2; assay: MBC/MFC determination; format: cell-based, Escherichia coli; details: alone
Procedure: (§1) An assay was made using a minimum inhibitory concentration (MIC) and minimum bactericidal concentration (MBC) and minimum fungicidal concentration (MFC) determination. The MIC was determined by the micro broth dilution method in 96-well plates. Serial two-fold dilutions of tetrasodium EDTA (from 2% to 0.015%), ethanol (from 50% to 0.1%) and chlorhexidine HCl (from 100 μg/mL to 0.025 μg/mL) were prepared in MH broth with a final volume of 90 μL per well. A 10 μL containing 1×10^5 bacterial cells or 2×10^3 fungal cells were added to each well. The inoculated plates were covered with a lid, sealed with Parafilm, and incubated for 24 h at 37° C. with slight rocking on a tilting platform shaker. After incubation, the optical density at 600 nm (OD 600) of the cultures in each well was measured using an xMark™ Microplate Absorbance Spectrophotometer (Bio-Rad). […] MBCs and MFCs were determined by transferring 100 μL from each well with no apparent growth onto appropriate agar plates, followed by incubation for 24 h at 37° C.

[3] = test system: Pseudomonas aeruginosa SK1; assay: MBEC assay, 48-h biofilm, 24 h exposure; format: cell-based
Procedure: (§2) A biofilm cultivation cell composition was provided. This fifth composition was created using an MBEC Assay® biofilm inoculator, consisting of a polystyrene lid with 96 downward-protruding pegs and a corresponding base used to grow biofilms. A standardized inoculum was diluted in an appropriate biofilm growth medium to achieve a viable cell count of 1.5×10^6 CFU/mL of bacterial cells or 5×10^5 CFU/mL of fungal cells. Then, 150 μL of this inoculum was transferred into each appropriate well, and the peg lids were inserted into the microtiter plates. The plates were sealed with Parafilm and were incubated at optimum temperature for 48 h with slight rocking for bacteria and shaking at 200 rpm for fungal strains. After incubation, the peg lid was removed from the base and rinsed twice with sterile phosphate-buffered saline (PBS) for 2 min to remove loosely attached non-sessile cells. Before the antimicrobial challenge, the pegs in column 1 (n=8) were considered the biofilm growth control; these pegs were removed from the lids, placed into 200 μL of recovery medium, and analyzed for starting biofilm cell numbers as described below. The rinsed pegs were placed into new 96-well plates containing two-fold dilutions of antimicrobials such as tetrasodium EDTA (4%-0.0125%), ethanol (100%-0.2%), and chlorhexidine HCl (100 μg/mL-0.4 μg/mL) in 200 μL of suitable biofilm growth medium per well and incubated at optimum temperature for 24 h. After the antimicrobial challenge, the pegs were rinsed twice with sterile PBS for 2 min and placed into a new 96-well plate containing 200 μL of recovery medium. The recovery plates were sealed with Parafilm, and biofilm cells were dislodged from the pegs by sonication for 30 min with a Branson 3510 bath sonicator. The biofilm cells in the recovery medium were serially diluted, and a drop dilution assay was performed to enumerate the viable cells. MBEC values were determined as the minimum concentration of antimicrobials that yielded a viable cell count at or lower than the 125 CFU/mL detection limit.

[4] = test system: Candida albicans SK4b; assay: MBEC assay, 48-h biofilm, 24 h exposure; format: cell-based
Procedure: as §2

[5] = test system: Staphylococcus epidermidis SK9; assay: MBEC assay, 48-h biofilm, 24 h exposure; format: cell-based
Procedure: as §2

[6] = test system: Proteus mirabilis ON153; assay: MIC, micro broth dilution; format: cell-based; details: alone, read-out: MIC
Procedure: as §1

[7] = test system: Pseudomonas aeruginosa SK1; assay: MIC, micro broth dilution; format: cell-based; details: alone, read-out: MIC
Procedure: as §1

[8] = test system: Staphylococcus aureus ON89; assay: MIC, micro broth dilution; format: cell-based; details: alone, read-out: MIC
Procedure: as §1

[9] = test system: Stenotrophomonas maltophilia ON17; assay: MIC, micro broth dilution; format: cell-based; details: alone, read-out: MIC
Procedure: as §1

[10] = test system: Candida albicans SK4b; assay: MIC, micro broth dilution; format: cell-based; details: alone, read-out: MIC
Procedure: as §1

[11] = test system: Staphylococcus epidermidis ON170; assay: MIC, micro broth dilution; format: cell-based; details: alone, read-out: MIC
Procedure: as §1

[12] = test system: Escherichia coli ON29; assay: MIC, micro broth dilution; format: cell-based; details: alone, read-out: MIC
Procedure: as §1

[13] = test system: Serratia marcescens SK2; assay: MIC, micro broth dilution; format: cell-based; details: alone, read-out: MIC
Procedure: as §1

[14] = test system: C. albicans ON47; assay: FBEC index, checkerboard on biofilms; format: cell-based, Candida albicans; details: EDTA + chlorhexidine HCl
[15] = test system: Candida albicans SK4b; assay: FBEC index, checkerboard on biofilms; format: cell-based; details: EDTA + chlorhexidine HCl
[16] = test system: C. albicans ON47; assay: MBEC assay, 48-h biofilm, 24 h exposure; format: cell-based, Candida albicans
Procedure: as §2

[17] = test system: MRSA ON184; assay: MIC, micro broth dilution; format: cell-based, S. aureus; details: Staphylococcus aureus, alone, read-out: MIC
Procedure: as §1

[18] = test system: S. epidermidis SK9; assay: MIC, micro broth dilution; format: cell-based, Staphylococcus epidermidis; details: Staphylococcus epidermidis, alone, read-out: MIC
Procedure: as §1

[19] = test system: Proteus mirabilis ON153; assay: Checkerboard titration, FICI; format: cell-based; details: EDTA + chlorhexidine HCl
Procedure: (§3) A fourth composition and solution included tetrasodium EDTA with ethanol or chlorhexidine HCl. This fourth composition and solution were created using checkerboard titration methods using micro broth dilution in 96-well microtiter plates. The concentrations of antimicrobials used were based on previously determined MIC values. Briefly, 200 μL, of two-fold dilutions of tetrasodium EDTA and ethanol or chlorhexidine HCl were prepared in MH or MH II broth with standardized cell suspension. […] Microtiter plates were incubated at 37° C. for 24 h, and the results were analyzed. Each test was performed in duplicate and included a growth control without adding any antimicrobials.

[20] = test system: Pseudomonas aeruginosa SK1; assay: Checkerboard titration, FICI; format: cell-based; details: EDTA + chlorhexidine HCl
Procedure: as §3

[21] = test system: Staphylococcus aureus ON89; assay: Checkerboard titration, FICI; format: cell-based; details: EDTA + chlorhexidine HCl
Procedure: as §3

[22] = test system: Stenotrophomonas maltophilia ON17; assay: Checkerboard titration, FICI; format: cell-based; details: EDTA + chlorhexidine HCl
Procedure: as §3

[23] = test system: Candida albicans SK4b; assay: Checkerboard titration, FICI; format: cell-based; details: EDTA + chlorhexidine HCl
Procedure: as §3

[24] = test system: Staphylococcus epidermidis ON170; assay: Checkerboard titration, FICI; format: cell-based; details: EDTA + chlorhexidine HCl
Procedure: as §3

[25] = test system: Escherichia coli ON29; assay: Checkerboard titration, FICI; format: cell-based; details: EDTA + chlorhexidine HCl
Procedure: as §3

[26] = test system: Serratia marcescens SK2; assay: Checkerboard titration, FICI; format: cell-based; details: EDTA + chlorhexidine HCl
Procedure: as §3

In the case of `[H]/N=C(\N/C(=N/[H])NCCCCCCNC(=N)NC(=N)Nc1ccc(Cl)cc1)Nc1ccc(Cl)cc1` [Chlorhexidine HCl, 1,6-bis(4′-chlorophenylbiguanide) hexane], the “Chlorhexidine HCl biofilm eradication concentration in combination (FBEC)” value [1] is reported as 3.125 µg/mL, the MBC/MFC [2] is reported as 0.8 µg/mL and the MBEC [3] is reported as 100 µg/mL. The MBEC [4] was 50 µg/mL, the MBEC [5] was 25 µg/mL and the MIC [6] was 50 µg/mL. For the same molecule, the MIC [7] was 1.6 µg/mL, the MIC [8] was 0.1 µg/mL and the MIC [9] was 0.8 µg/mL. It also gave an MIC [10] of 1.6 µg/mL, an MIC [11] of 0.1 µg/mL and an MIC [12] of 0.4 µg/mL. The MIC [13] was 12.5 µg/mL, the “Chlorhexidine HCl biofilm eradication concentration in combination (FBEC)” value [14] was 6.25 µg/mL and the “Chlorhexidine HCl biofilm eradication concentration in combination (FBEC)” value [15] was 6.25 µg/mL. For the same molecule, the MBEC [16] was 25 µg/mL, the MIC [17] was 0.2 µg/mL and the MIC [18] was 0.1 µg/mL. For the same molecule, the “Chlorhexidine HCl concentration in combination” value (“Chlorhexidine HCl concentration” below) [19] was 0.8 µg/mL, the “Chlorhexidine HCl concentration” value [20] was 0.8 µg/mL and the “Chlorhexidine HCl concentration” value [21] was 0.1 µg/mL. The “Chlorhexidine HCl concentration” value [22] was 0.2 µg/mL, the “Chlorhexidine HCl concentration” value [23] was 0.8 µg/mL and the “Chlorhexidine HCl concentration” value [24] was 0.05 µg/mL. For the same molecule, the “Chlorhexidine HCl concentration” value [25] was 0.2 µg/mL and the “Chlorhexidine HCl concentration” value [26] was 1.5 µg/mL.
